Test results reported in PubChem BioAssay (NCI).
Where “and” joins values, the source holds several entries; their conditions need not be identical. Equal entries are not always repeated.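 A five-concentration, 48-hour dose response in 96-well plates underlies each endpoint, interpolated linearly between surrounding concentrations. Abbreviation: GI50, concentration required for 50% inhibition of growth. TGI: total growth inhibition.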

What was measured:
Experiment in all cases: DTP human tumour cell line panel, 48 h
ACHN renal = test system: ACHN renal
CAKI-1 renal = test system: CAKI-1 renal
HCT-15 colon = test system: HCT-15 colon
HOP-62 NSCLC = test system: HOP-62 NSCLC
LOX IMVI melanoma = test system: LOX IMVI melanoma
MDA-MB-231 breast = test system: MDA-MB-231 breast
MDA-N = test system: MDA-N
NCI-H460 lung = test system: NCI-H460 lung
SNB-75 CNS = test system: SNB-75 CNS
LXFL 529 NSCLC = test system: LXFL 529 NSCLC

SMILES | TGI (ACHN renal) | TGI (CAKI-1 renal) | GI50 (HCT-15 colon) | TGI (HCT-15 colon) | TGI (HOP-62 NSCLC) | GI50 (LOX IMVI melanoma) | TGI (LOX IMVI melanoma) | TGI (MDA-MB-231 breast) | TGI (MDA-N) | GI50 (NCI-H460 lung) | TGI (NCI-H460 lung) | TGI (SNB-75 CNS) | GI50 (ACHN renal) | GI50 (CAKI-1 renal) | GI50 (HOP-62 NSCLC) | GI50 (MDA-MB-231 breast) | GI50 (SNB-75 CNS) | TGI (LXFL 529 NSCLC) | GI50 (LXFL 529 NSCLC)
O=C1/C(=C/c2ccccc2)CN(C(=O)OCc2ccccc2)C/C1=C\c1ccccc1 | 25.7 µM | > 31.6 µM | 4.01 µM | 20.8 µM | 39.9 µM | 1.21 µM | 2.52 µM and 8.88 µM | 50.4 µM | 13.1 µM | 5.47 µM | > 46.4 µM | > 31.6 µM | – | – | – | – | – | – | –
COc1ccc(-c2c(-c3cc(OC)c4c(c3)OCO4)noc2N)cc1 | 39.8 µM | 57.2 µM | 0.0431 µM | > 100 µM | 37.1 µM | 0.0629 µM | > 51.5 µM | 16.9 µM | – | 0.0339 µM | 10.9 µM | 58.5 µM | 0.108 µM | 0.0424 µM | 0.0345 µM | 0.181 µM | 0.0339 µM | – | –
CC1=C(c2cc(C(=O)Nc3cccc(C(F)(F)F)c3)ncn2)Sc2ccccc2N1 | > 100 µM | > 100 µM | – | > 100 µM | > 100 µM | – | – | – | – | – | > 100 µM | > 100 µM | – | – | – | – | – | > 100 µM | –
O=C(NNC(=O)c1cc(/C=C/c2cccc([N+](=O)[O-])c2)[nH]c(=S)n1)Nc1ccc(Cl)cc1 | > 100 µM | – | – | > 100 µM | > 100 µM | – | 37.3 µM | – | – | – | > 100 µM | > 100 µM | – | – | – | – | – | > 100 µM | –
COc1ccc(C(=O)COc2cccc(/C=C3\CSc4ccc(C)cc4C3=O)c2)cc1 | > 100 µM | > 100 µM | 11.7 µM | > 100 µM | > 100 µM | 2.53 µM | 8.06 µM | > 100 µM | – | > 100 µM | > 100 µM | > 100 µM | 25.7 µM | 28.7 µM | 24.9 µM | 24 µM | 27.9 µM | – | –
COC1=Nc2ccccc2S(=O)(=O)C=C1 | 8.83 µM | – | – | 7.89 µM | > 100 µM | – | 10.9 µM | 27.2 µM | 20.8 µM | – | 37.3 µM | 17.5 µM | – | 0.256 µM | – | – | – | – | –
O=[N+]([O-])c1ccc2ncccc2c1Cl | 22.3 µM | 3.45 µM | 3.43 µM | 14.4 µM | > 100 µM | 2.4 µM | 14.5 µM | 11.9 µM | – | 3.47 µM | 16.6 µM | > 100 µM | 4.69 µM | 1.69 µM | 5.64 µM | 3.46 µM | 4.67 µM | – | –
O=C([O-])c1ccc(C(=O)[O-])cc1.O=C([O-])c1ccc(C(=O)[O-])cc1.[Mo+2].[Mo+2] | > 100 µM | > 100 µM | > 100 µM | > 100 µM | – | > 100 µM | > 100 µM | – | – | > 100 µM | > 100 µM | – | > 100 µM | > 100 µM | – | – | – | > 100 µM | > 100 µM
CSc1ccc(/C=C/c2ccnc3ccccc23)cc1 | 29.5 µM | – | – | 25.7 µM | 34.8 µM | – | 25.4 µM | 30.8 µM | 27 µM | – | 27.3 µM | 44.6 µM | – | – | – | – | – | – | –
N#CC1(C=O)c2ccccc2C=CN1C(=O)c1ccccc1 (centres undefined) | > 100 µM | > 100 µM | – | > 100 µM | – | – | – | – | – | – | > 100 µM | 66.9 µM | – | – | – | – | – | > 100 µM | –
